The source of these data is PubChem BioAssay (NCI).

Test systems include SNB-19 CNS; OVCAR-4 ovarian; SK-OV-3 ovarian; HCC-2998 colon; IGROV1 ovarian; SNB-75 CNS; K-562 leukemia; SN12C renal; 786-0 renal; SF-539 CNS.
What all share (assay): DTP human tumour cell line panel, 48 h

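Briefly, cells in 96-well plates were exposed to five compound concentrations for 48 h, and endpoints were estimated by linear interpolation. GI50 marks 50% less growth. TGI: total growth inhibition.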 Where only a bound is given, the exact number is not on record here.

Consider `NC(N)=N/N=C/c1c(Cl)cccc1Cl`, for which the GI50 is 37.7 µM with SNB-19 CNS; 25.3 µM in the assay with OVCAR-4 ovarian; 41.6 µM in the assay on SK-OV-3 ovarian; 14.8 µM with HCC-2998 colon; 31.2 µM with IGROV1 ovarian; 16.7 µM with SNB-75 CNS. For the same compound, the GI50 is 24.1 µM with K-562 leukemia, 36.6 µM in the assay with SN12C renal, 18 µM in the assay with 786-0 renal and 23.7 µM with SF-539 CNS. In addition, the TGI was more than 100 µM in the assay on SNB-19 CNS; more than 100 µM with OVCAR-4 ovarian; more than 100 µM with SK-OV-3 ovarian; 28.6 µM in the assay with HCC-2998 colon; more than 100 µM in the assay on IGROV1 ovarian; 54.1 µM with SNB-75 CNS. Moreover, the TGI in the assay with K-562 leukemia was 63.1 µM; in the assay with SN12C renal, more than 100 µM; in the assay on 786-0 renal, 43.7 µM; in the assay on SF-539 CNS, more than 100 µM.
On to `C#CC1/C(=C\C(=O)OC)CCCC1O` (centres undefined), for which the TGI in the assay with SNB-19 CNS, in the assay with OVCAR-4 ovarian, with SK-OV-3 ovarian, in the assay with HCC-2998 colon, in the assay on IGROV1 ovarian and in the assay with SNB-75 CNS was more than 100 µM throughout. Also, the TGI in the assay on K-562 leukemia, with SN12C renal, with 786-0 renal and with SF-539 CNS was more than 100 µM in each case.
For the compound `O=c1oc2ccc(-c3ccc(F)cc3F)cc2c(=O)n1-c1cccc(C(F)(F)F)c1`, the GI50 was 1.83 µM with SNB-19 CNS; 1.67 µM with OVCAR-4 ovarian; 1.02 µM in the assay on SK-OV-3 ovarian; 2.64 µM in the assay on HCC-2998 colon; 1.66 µM in the assay on IGROV1 ovarian; 1.33 µM with SNB-75 CNS. Moreover, the GI50 with K-562 leukemia was 1.2 µM; in the assay with SN12C renal, 1 µM; in the assay on 786-0 renal, 2.47 µM; in the assay with SF-539 CNS, 1.41 µM. Also, the TGI was more than 100 µM in the assay with SNB-19 CNS; 13.6 µM with OVCAR-4 ovarian; 4.54 µM in the assay on SK-OV-3 ovarian; 7.94 µM with HCC-2998 colon; 22.2 µM in the assay with IGROV1 ovarian; 3.78 µM in the assay with SNB-75 CNS. Further, the TGI was found to be 18.2 µM in the assay with K-562 leukemia, 10.4 µM with SN12C renal, 6.5 µM with 786-0 renal and 6.95 µM with SF-539 CNS.
On to `CCOc1ccc(/C=C2\N=C(c3ccc([N+](=O)[O-])cc3)OC2=O)cc1`, for which the concentration for total growth inhibition (TGI) with SNB-19 CNS, in the assay on OVCAR-4 ovarian, in the assay with SK-OV-3 ovarian, in the assay on HCC-2998 colon, in the assay on IGROV1 ovarian and in the assay with SNB-75 CNS was more than 100 µM each time. The TGI in the assay on K-562 leukemia, in the assay on SN12C renal, in the assay on 786-0 renal and with SF-539 CNS was more than 100 µM in each case.
On to `COc1cc(N(CCC#N)CCC#N)ccc1/C(N=Nc1ccc(Cl)cc1)=N/NC(=O)c1cc(Br)ccc1O`, for which the GI50 is more than 150 mg/L with SNB-19 CNS; 11.1 mg/L in the assay with OVCAR-4 ovarian; 90.8 mg/L in the assay with SK-OV-3 ovarian; 33.8 mg/L with HCC-2998 colon; 54.5 mg/L in the assay with IGROV1 ovarian; 25 mg/L with SNB-75 CNS. For the same compound, the GI50 in the assay with K-562 leukemia was 86.4 mg/L; in the assay on SN12C renal, 88.4 mg/L; in the assay on 786-0 renal it was 77.1 mg/L; in the assay with SF-539 CNS, 73.3 mg/L. Also, the TGI in the assay with SNB-19 CNS was more than 150 mg/L; in the assay on OVCAR-4 ovarian it was 37 mg/L; with SK-OV-3 ovarian it was more than 150 mg/L; in the assay on HCC-2998 colon, 81.8 mg/L; in the assay with IGROV1 ovarian, more than 150 mg/L; in the assay on SNB-75 CNS, 95.1 mg/L. Further, the TGI in the assay with K-562 leukemia, with SN12C renal, in the assay on 786-0 renal and with SF-539 CNS was more than 150 mg/L each time.
Consider `C[C@@H]1C[C@@H]([C@@H](CC2CC(=O)NC(=O)C2)OC(=O)CC(=O)c2ccccc2)C(=O)[C@@H](C)C1`, for which the GI50 is 0.774 µM with SNB-19 CNS; 1.91 µM in the assay with OVCAR-4 ovarian; 0.411 µM with SK-OV-3 ovarian; 0.373 µM in the assay with HCC-2998 colon; 0.62 µM with IGROV1 ovarian; 0.911 µM in the assay on SNB-75 CNS. In addition, the GI50 is 0.682 µM in the assay with K-562 leukemia, 0.15 µM in the assay with SN12C renal, 0.293 µM in the assay on 786-0 renal and 0.521 µM in the assay with SF-539 CNS. The TGI is more than 100 µM in the assay with SNB-19 CNS; more than 100 µM in the assay on OVCAR-4 ovarian; more than 43.7 µM in the assay on SK-OV-3 ovarian; more than 26.5 µM in the assay on HCC-2998 colon; more than 55.1 µM in the assay on SNB-75 CNS; more than 100 µM in the assay on K-562 leukemia. The TGI in the assay on SN12C renal was more than 39.3 µM; in the assay on 786-0 renal, 13.2 µM; with SF-539 CNS, 16.6 µM.
As to `S=c1[nH]c(=S)c2cc3ccccc3nc2[nH]1`, the GI50 in the assay with SNB-19 CNS was 35.5 µM; with OVCAR-4 ovarian it was more than 100 µM; with SK-OV-3 ovarian, more than 100 µM; in the assay on HCC-2998 colon, 92.3 µM; in the assay with IGROV1 ovarian, 23 µM; in the assay with SNB-75 CNS it was more than 100 µM. The GI50 in the assay with K-562 leukemia, in the assay on SN12C renal, in the assay on 786-0 renal and with SF-539 CNS was more than 100 µM each time. In addition, the TGI in the assay on SNB-19 CNS, in the assay with OVCAR-4 ovarian, in the assay with SK-OV-3 ovarian, in the assay on HCC-2998 colon, in the assay with IGROV1 ovarian and in the assay on SNB-75 CNS was more than 100 µM each time. Further, the TGI in the assay with K-562 leukemia, in the assay with SN12C renal, with 786-0 renal and in the assay on SF-539 CNS was more than 100 µM throughout.
For the compound `CN(C)C(=S)/N=c1\sn(C)/c(=N\C(=S)N(C)C)n1C`, the TGI with SNB-19 CNS, in the assay with OVCAR-4 ovarian, with SK-OV-3 ovarian, in the assay on HCC-2998 colon, in the assay with IGROV1 ovarian and in the assay with SNB-75 CNS was more than 100 µM each time. Moreover, the TGI in the assay with K-562 leukemia, with SN12C renal, in the assay with 786-0 renal and with SF-539 CNS was more than 100 µM in each case.
For the compound `N#C/C(=C\c1ccc2ccccc2c1)C(=O)c1ccccc1`, the TGI in the assay with SNB-19 CNS, with OVCAR-4 ovarian, with SK-OV-3 ovarian, with HCC-2998 colon, in the assay with IGROV1 ovarian and in the assay on SNB-75 CNS was more than 100 µM throughout. For the same compound, the TGI with K-562 leukemia was 99.2 µM; with SN12C renal it was more than 87.2 µM; with 786-0 renal, more than 85.5 µM; in the assay with SF-539 CNS, more than 100 µM.
Turning to `CCn1c(O)c(/C=N/NC(=O)C(C)c2ccc(CC(C)C)cc2)sc1=S` (centres undefined), the GI50 is 0.433 µM in the assay with SNB-19 CNS; 1.08 µM in the assay with OVCAR-4 ovarian; 0.666 µM with SK-OV-3 ovarian; 0.839 µM in the assay with HCC-2998 colon; 0.419 µM in the assay with IGROV1 ovarian; 0.241 µM with SNB-75 CNS. For the same compound, the GI50 with K-562 leukemia is 0.282 µM; in the assay on SN12C renal, 0.619 µM; with 786-0 renal, 0.606 µM; in the assay on SF-539 CNS, 0.214 µM. The TGI in the assay with SNB-19 CNS was more than 41.8 µM; with OVCAR-4 ovarian it was more than 52 µM; in the assay with SK-OV-3 ovarian, more than 100 µM; in the assay with HCC-2998 colon it was 13.7 µM; in the assay on IGROV1 ovarian, more than 36.9 µM; in the assay with SNB-75 CNS, 0.757 µM. In addition, the TGI with K-562 leukemia was more than 48.4 µM; in the assay with SN12C renal it was more than 40.3 µM; in the assay with 786-0 renal, more than 40.9 µM; in the assay with SF-539 CNS, 0.609 µM.
Regarding `CC1CC2CCCC(O)=C2C(=O)O1` (centres undefined), the TGI with SNB-19 CNS was more than 64.8 µM; in the assay on OVCAR-4 ovarian, more than 100 µM; in the assay on SK-OV-3 ovarian, more than 100 µM; in the assay on HCC-2998 colon it was more than 100 µM; in the assay on IGROV1 ovarian, more than 100 µM; in the assay with SNB-75 CNS it was more than 100 µM. Further, the TGI in the assay with K-562 leukemia, in the assay on SN12C renal, with 786-0 renal and in the assay with SF-539 CNS was more than 100 µM throughout.
Turning to `CCC(C)(C)c1ccc(OCCCCNC(=O)c2ccc3ccccc3c2O)c(C(C)(C)CC)c1`, the TGI in the assay on SNB-19 CNS, with OVCAR-4 ovarian, in the assay on SK-OV-3 ovarian, with HCC-2998 colon, in the assay with IGROV1 ovarian and with SNB-75 CNS was more than 100 µM each time. The TGI in the assay with K-562 leukemia was more than 100 µM; with SN12C renal, more than 100 µM; in the assay on 786-0 renal, 93.5 µM; in the assay with SF-539 CNS, more than 100 µM.
`COc1cc(OC)c2c(=O)cc(-c3ccc(OC)c(OC)c3OC)oc2c1`: the TGI was more than 100 µM in the assay on SNB-19 CNS; more than 100 µM in the assay with OVCAR-4 ovarian; more than 100 µM in the assay with SK-OV-3 ovarian; more than 100 µM in the assay with HCC-2998 colon; more than 100 µM in the assay on IGROV1 ovarian; 45.3 µM with SNB-75 CNS. In addition, the TGI with K-562 leukemia, in the assay with SN12C renal, in the assay with 786-0 renal and in the assay with SF-539 CNS was more than 100 µM in each case.
Take `C/C(CC(=O)Nc1ccc(C)c(C)c1)=N\N(c1ccccc1)c1ccccc1`: the TGI in the assay on SNB-19 CNS, with OVCAR-4 ovarian, in the assay on SK-OV-3 ovarian, in the assay with HCC-2998 colon, in the assay on IGROV1 ovarian and with SNB-75 CNS was more than 100 µM in each case. Also, the TGI in the assay with K-562 leukemia is 68.9 µM; with SN12C renal, more than 100 µM; in the assay with 786-0 renal, more than 100 µM; in the assay with SF-539 CNS, more than 100 µM.
